Laboratory results: US12398110B2, “Second generation inhibitors of mitochondrial permeability transition pore with improved plasma stability” (Oregon Health & Science University, priority 2019, dated 2025)
Read-outs that look alike come from different tables or passages of the source.

Tests used:
[1] = system: col6a1 zebrafish morphants; assay: Birefringence (muscle structure) in col6a1 zebrafish morphants; format: in vivo; settings: 48 hpf
Method: Muscle structure was assessed by birefringence analysis at 48 hpf, a time when muscle tissue is fully developed and organized muscle fibers start to show anisotropic features. A high percentage of severe birefringence abnormality (>75%, FIG. 6C) was detected in col6a1 morphants, indicating major defects of muscle fiber development and organization.
Morpholino antisense injection and treatment. Knock-down of col6a1 gene expression was obtained with a previously published morpholino ^[25] with sequence GAGAGCGGAAGACGAACCTTCATTC (SEQ ID NO: 2; GeneTools, Inc.). A control morpholino with no sequence homology in the zebrafish genome was used in parallel (CCTCTTACCTCAGTTACAATTTATA; SEQ ID NO: 3). Zebrafish eggs from wild-type matings were injected at the 1-2 cell stage with approximately 10 nL of 0.1 mm morpholino solution (corresponding to 4 ng of morpholino) using a WPI pneumatic PicoPump PV820 injector (World Precision Instruments, Inc.). […]
Birefringence. Muscle structure was monitored by birefringence analysis, taking advantage of muscle anisotropy, which is the ability of muscle fibers to refract polarized light. […] With this set-up, light refracted by muscle fibers (due to the pseudo-crystalline array of sarcomeres) is transmitted and analyzed. Integrated area of birefringence was calculated using ImageJ software. […]

[2] = system: col6a1 zebrafish morphants; assay: Touch-evoked escape response in col6a1 zebrafish morphants; format: in vivo; settings: 48 hpf
Method: (§1) Zebrafish embryos were injected with col6a1 morpholino at the 1-cell stage, dechorionated at 20 hpf and treated at 21 hpf with 0.1, 1 or 10 μm of either TR001 or 63. DMSO-treated embryos injected with a scrambled morpholino were used as a control. […] It should be noted that in these protocols, embryos were exposed to drugs for a longer period of time than in the spontaneous coiling experiments. This difference may help to explain why TR001 was as effective at 0.1 μm as it was at 1 and 10 μm.
(§2) Morpholino antisense injection and treatment. Knock-down of col6a1 gene expression was obtained with a previously published morpholino ^[25] with sequence GAGAGCGGAAGACGAACCTTCATTC (SEQ ID NO: 2; GeneTools, Inc.). A control morpholino with no sequence homology in the zebrafish genome was used in parallel (CCTCTTACCTCAGTTACAATTTATA; SEQ ID NO: 3). Zebrafish eggs from wild-type matings were injected at the 1-2 cell stage with approximately 10 nL of 0.1 mm morpholino solution (corresponding to 4 ng of morpholino) using a WPI pneumatic PicoPump PV820 injector (World Precision Instruments, Inc.). Zebrafish embryos were dechorionated at 20 hours post fertilization (hpf) and treated at 21 hpf with increasing doses (0.1, 1 and 10 μm) of both TR001 and 63 compounds dissolved in fish water with 1% DMSO (vehicle).
Motor activity. The number of spontaneous coiling events performed in 15 seconds by single zebrafish embryos was recorded at 24 hpf by light microscopy. Touch-evoked escape responses were recorded at 48 hpf by observing the ability of zebrafish embryos to escape after a tail-touch with a little tip. Embryos were subdivided in 4 groups according to the observed phenotype: paralyzed embryos, score 0; underdeveloped embryos showing only coiling events, score 1; embryos showing lower motility, score 2; normal embryos, score 3.

[3] = Plasma stability determination in mouse plasma; format: in vitro ADME; settings: mouse
Method: Plasma stability determination. The degradation of TR001 in the presence of mouse plasma (from Innovative Research) was used to predict the plasma stability of the compound to esterase catalyzed hydrolysis. A positive control for plasma cholinesterase, propantheline bromide, was included in all assays. Briefly, murine plasma was incubated with 1 μm TR001. Aliquots were removed at t=0, 5, 15, 30, and 60 and 120 min and quenched with acetonitrile containing structurally related compound (TR073) as the internal standard. The amount of TR001 remaining in the supernatant was assessed by LC-MS/MS in multiple reaction monitoring mode (MRM) using a 4000 QTRAP (SCIEX) with electrospray ionization source. The instrument was operated in negative mode with source parameters: source voltage […], GS1 50, GS2 50, CUR 30, TEM 650 and CAD gas MED. Optimal MRM transitions were obtained by direct infusion of the pure compound into the source. The mass spectrometer was interfaced to a Shimadzu (Columbia, MD) SIL-20AC XR auto-sampler maintained at 35° C. followed by 2 LC-20AD XR LC pumps. The internal standard and compound of interest were resolved using a Gemini-NX C18 50×2.1 mm column (Phenomenex) with 0.1% formic acid (solvent A) and 0.1% formic acid in acetonitrile (solvent B). The injection volume was 10 μL at a flow rate of 0.75 mL/min. The gradient elution was 10% B to 95% B over 5 min and held at 95% for 1 min before returning to start conditions. The column was maintained at 40° C. using a Shimadzu CTO-20AC column oven. Data were acquired using Analyst 1.6.2 and analyzed using Multiquant 3.0.1 software. The first-order rate constant for substrate depletion was determined from a linear least squares fit of the natural log of the percent parent compound remaining versus time. The rate constant was used to calculate the plasma half-life as an indicator of stability.

[4] = system: col6a1 zebrafish morphants; assay: Survival of col6a1 zebrafish morphants; format: in vivo
From the text: In FIG. 6D, the left panel represents data from embryos injected with a scrambled morpholino (scrd_MO, open squares), Exon 9 col6a1 morpholino (col6a1_MO, closed squares) and col6a1_MO embryos treated with TR001 at 0.1 μm (open circles), 1.0 μm (open triangles), 10 μm (open diamonds). Right panel represents data from embryos injected with a scrambled morpholino (scrd_MO, open squares), Exon 9 col6a1 morpholino (col6a1_MO, closed squares) and col6a1_MO embryos treated with 63 at […] (closed circles), 1.0 μm (closed triangles), 10 μm (closed diamonds). Embryos were treated with oligomycin, FCCP, rotenone (R) and antimycin A (A) as indicated. Results are presented as mean±SEM. Both graphs report data from 5 independent experiments with n=20 for each treatment. Error bars are reported as SEM. FIG. 6E, Survival of DMSO-treated zebrafish injected with the scrambled morpholino (open squares), DMSO-treated col6a1 morphants (closed squares) and col6a1 morphants treated with TR001 (0.1 μm, open triangles; 1.0 μm, open circles; 10 μm, open diamonds) or 63 (0.1 μm, closed triangles; 1.0 μm, closed circles; 10 μm, closed diamonds) were recorded for 30 days. Treatment started at 21 hpf and repeated at 4 dpf (arrows). Data report the percentage of surviving fish and are mean±SEM from 3 independent experiments (n=15 for each condition in each set).
Finally, fish survival was also assessed. Fifty percent of col6a1 morphant embryos treated with 0.1 μm of TR001 survived 7 days longer than col6a1 morphants treated with DMSO (p<0.0001 from 3 to 12 dpf), and 20% were still alive at 30 dpf (i.e., after 29 days of treatment) (FIG. 6E).
as §2
Survival. Zebrafish survival was monitored every 3 days for 30 days. Drug treatment with both TR001 and 63 dissolved in fish water with 1% DMSO started at 21 hpf. After 3 days of treatment (4 days post fertilization, dpf), zebrafish were moved to a bigger tank (50 mL) with fresh compounds dissolved in 1% DMSO. As a control vehicle, fish water with 1% DMSO was used.

[5] = system: col6a1 zebrafish morphants; assay: Spontaneous coiling events in col6a1 zebrafish morphants; format: in vivo; settings: 24 hpf, 3 hours of treatment, 0.1, 1 or 10 μm
Method: as §1
Morpholino antisense injection and treatment. Knock-down of col6a1 gene expression was obtained with a previously published morpholino ^[25] with sequence GAGAGCGGAAGACGAACCTTCATTC (SEQ ID NO: 2; GeneTools, Inc.). A control morpholino with no sequence homology in the zebrafish genome was used in parallel (CCTCTTACCTCAGTTACAATTTATA; SEQ ID NO: 3). […]
Motor activity. The number of spontaneous coiling events performed in 15 seconds by single zebrafish embryos was recorded at 24 hpf by light microscopy. Touch-evoked escape responses were recorded at 48 hpf by observing the ability of zebrafish embryos to escape after a tail-touch with a little tip. […]

[6] = system: mitochondria; settings: from Roy et al. [12]; cited from earlier work

Row | Structure (SMILES) | muscle structure by birefringence [1] | touch-evoked escape response (motility) ([2]; 0.1-1.0 μM) | touch-evoked escape response (motility) ([2]; 10 μm) | half-life at 1 µM ([3]; plasma, read-out: half-life (t1/2) in plasma) | survival (in words) ([4]; 1 μm) | survival (in words) ([4]; 10 μm) | survival (in words) ([4]; lowest concentration tested (0.1 μm)) | spontaneous coiling events [5] | mitochondrial toxicity [6] | half-life at 1 µM ([3]; read-out: Mouse Plasma t1/2)
1 | Cc1ccc(Cl)cc1NC(=O)c1cc(-c2ccc(F)c(O)c2)on1 [Compound 63, reference compound] | minimal effect | minimal recovery | no longer seen | 0.35 h | ineffected | ineffected | decreased activity compared to TR001 | no effect | – | –
2 | Cc1ccc(Cl)cc1NC(=O)c1cc(-c2ccc(F)c(O)c2)[nH]n1 [Compound 72] | – | – | – | – | – | – | – | – | exhibited mitochondrial toxicity | 8.88 h
3 | COc1ccc(-c2cc(C(=O)Nc3cc(Cl)ccc3C)nn2C)cc1O [Compound 73] | – | – | – | – | – | – | – | – | exhibited mitochondrial toxicity | 1.42 h
4 | COc1ccc(-c2cc(C(=O)Nc3cc(Cl)cnc3C)nn2C)cc1O [Compound 74] | – | – | – | – | – | – | – | – | exhibited mitochondrial toxicity | 2.52 h
